We go through one molecule from patent publication US5739130A, “Heterotricyclic derivatives, process for their preparation and pharmaceutical compositions containing them” (Fujisawa Pharmaceutical Co., Ltd., priority 1992, dated 1998).

Structures are written as SMILES.

Assay [1] deals with proteinuria (serum albumin in the urine). The assay can be described thus: Inhibitory activity on the leakage of a proteinuria (GVH disease mice, serum albumin in urine). Type of assay: in vivo, (57BL/6×DBA/2)F1. The settings on record: 32 mg/kg orally once a day for 8 weeks, measured 8 weeks after last cell injection, P<0.01 vs control. On the procedure: (§1) Inhibitory activity on the production of an anti-DNA-antibody and on the leakage of a proteinuria
(§2) Six weeks old female (57BL/6×DBA/2)F1 and DBA/2 mice were used. Graft-versus-host (GVH) disease was induced in (57BL/6×DBA/2)F1mice with two injections of DBA/2 spleen cells given 5 days apart. Each injection contained 5×10^7 cells. From 3 days after the second cell injection, drug was administered orally once a day for 8 weeks.
(§3) As an indication of autoimmune disease, 4 weeks after the last cell injection anti-single strand DNA antibodies were measured by enzyme-linkedimmunosorbent assay (ELISA) using the procedure reported by T. Fujitsu et al. (International J. Immunopharmacol, 8 897 (1986)). To assess the renal disease, 8 weeks after the last cell injection proteinuria were measured. The concentration of serum albumin in the urine was determined by the single radial immunodiffusion method using rabbit anti-mouse serum albumin antiserum. Ten mice were used per group. The activity of the compound was expressed as a % inhibition of anti-DNA antibody and proteinuria.

In a further assay the test system is B16 melanoma cells. The assay can be described thus: Inhibitory activity on B16 melanoma metastases. The format is in vivo, Mouse. The settings on record: C57BL/6 mice, day 16, P<0.01 vs control. On the procedure:
Inhibitory activity on B16 melanoma metastases
According to the experimental schedule as exemplified below, the experiment was carried out.
Mouse B16 melanoma cells (5×10^5 cells) were inoculated intravenously to 8 weeks old female (C57BL/6) mice on day 0.
The animals were sacrificed at day 16 and tumor colonies established in lung were counted in a dissection microscope.
The test compound was administered orally once a day.
Effects of test compound on tumors were assessed by the numbers of colonies compared to control. [drawing 8] 2. Test compound

Assay [2] concerns anti-single strand DNA antibodies. Put plainly: Inhibitory activity on the production of an anti-DNA-antibody (GVH disease mice, ELISA). The following applies: 32 mg/kg orally once a day for 8 weeks, measured 4 weeks after last cell injection, P<0.05 vs control. The format is in vivo, (57BL/6×DBA/2)F1. The procedure: as §1, §2, §3
(In an ELISA, binding on a coated surface is turned into a signal by an enzyme label.)

`COc1cc2c3c(c1)c(O)c(C(=O)N1CCc4ccccc41)c(=O)n3CCO2` [2,3-Dihydro-7-hydroxy-9-methoxy-6-(1-indolinylcarbonyl)-5-oxo-5H-pyrido[1,2,3-de]-1,4-benzoxazine]: the “Inhibition (%) proteinuria” value in assay [1] is 99%. Moreover, the “inhibition (%) of tumor colonies in lung” value is 36% in the assay on B16 melanoma cells (32 mg/kg orally once a day) and 59% in the assay with B16 melanoma cells (100 mg/kg orally once a day). Besides, the “Inhibition (%) anti-DNA antibody” value in assay [2] worked out at 86%.
